assay: in vitro; conditions: human, hela cells, % viability

Compared with `O=S(=O)(CCN1CCC2(CC1)CN(CCO)c1ccccc12)c1ccccc1` [CBK126758], `O=C1NC2(CCN(C(=O)CCc3ccc(-c4ccccc4)o3)CC2)Nc2ccccc21` [CBK286316] is higher in viability at 28.5 h, 10 µM: 102% for the first, 106% for the second.

Going from `Cc1cc(NC(=O)C(C)C)nc2c1c(=O)oc1ccccc12` [CBK287441] to `COc1ccc(C(=O)Nc2nnc(-c3ccccc3OC)o2)cc1OC` [CBK287589], the viability at 28.5 h, 10 µM falls from 89.7% to 86.3%.

Going from `Cc1ccc(/C=C(\NC(=O)c2ccccc2)C(=O)N2CCCC2C(=O)O)cc1` (centres unmarked) [CBK265649] to `O=C(O)[C@@H]1CCCN1C(=O)CCn1nnc2ccccc2c1=O` [CBK286765], the viability at 28.5 h, 10 µM falls from 87.6% to 83.6%.

Compared with `CS(=O)(=O)N1CCCC(C(=O)Nc2nccs2)C1` (centres unmarked) [CBK287834], `CN1CCN(S(=O)(=O)c2cccc3nsnc23)CC1` [CBK062428] is higher in viability at 28.5 h, 10 µM: 100% for the first, 102% for the second.

Going from `Cc1cc(C)cc(Cn2cc(NCc3ccccc3)c(=O)[nH]c2=O)c1` [CBK288009] to `O=c1cc(O)c2cc([N+](=O)[O-])ccc2n1CCc1ccccc1` [CBK291165], the viability at 28.5 h, 10 µM falls from 106% to 90.8%.

First: CCN1CCC(CC(=O)NCCn2ccnc2C)CC1 [CBK281984]
Second: CCN1CCC(Oc2nccnc2OCCN2CCOCC2)CC1 [CBK082931]
The viability at 28.5 h, 10 µM of the first is higher: 108% for the first, 94.6% for the second.

First: O=C(N1CCC(Oc2nccnc2OCc2ccc(Cl)cc2F)CC1)C(F)(F)F [CBK164142]
Second: O=C(c1ccc(F)cc1)N1CCC(Oc2nccnc2OCc2ccc(Cl)c(Cl)c2)CC1 [CBK160721]
The viability at 28.5 h, 10 µM of the first is higher: 89.5% for the first, 85.9% for the second.

Going from `O=C(c1ncoc1-c1ccc(F)cc1)N1CCN2CCCCC2C1` (centres unmarked) [CBK282400] to `CNc1nc(C)c(C(=O)N2CCCC(COc3ccc(F)cc3)C2)s1` (centres unmarked) [CBK307234], the viability at 28.5 h, 10 µM rises from 96.2% to 103%.

Going from `O=C1CN(C(=O)NC(c2ccccc2)c2ccccc2)CCN1` [CBK155853] to `CO[C@H]1CC[C@H](C(=O)NC(c2ccccc2)c2nccn2C)CC1` (some centres unmarked) [CBK283852], the viability at 28.5 h, 10 µM rises from 93.6% to 93.8%.

First: COc1ccccc1NC(=O)CSc1nnc(-c2ccncc2)o1 [CBK287743]
Second: O=C(CSc1nnc(-c2ccncc2)n1-c1ccccc1)Nc1ccc([N+](=O)[O-])cc1 [CBK266620]
The viability at 28.5 h, 10 µM of the first is lower: 87% for the first, 96.3% for the second.

Going from `CN1C[C@@H](NC(=O)Nc2ccccc2)C[C@H]1c1nc(-c2cccnc2)no1` [CBK288858] to `CC(=O)NCCc1nc2cc(NC(=O)Nc3ccccc3)ccc2n1C` [CBK268216], the viability at 28.5 h, 10 µM falls from 104% to 103%.

Going from `O=S(=O)(Nc1cccc(C(F)(F)F)c1)c1ccc(OC(F)(F)F)cc1` [CBK043554] to `CS(=O)(=O)c1ccc(C(=O)Nc2nc(-c3ccccc3)cs2)cc1` [CBK287716], the viability at 28.5 h, 10 µM rises from 86.3% to 102%.

Going from `Oc1ccc(/C=N/c2ccc(O)c(-c3nc4ccccc4s3)c2)cc1O` [CBK262473] to `O=C(CSc1cccc2ccccc12)Nc1ccc([N+](=O)[O-])cc1O` [CBK268696], the viability at 28.5 h, 10 µM rises from 98.9% to 115%.

Going from `CCOC(=O)CN(C)Cc1c[nH]c2ccccc12` [CBK261869] to `COc1ccccc1CN(CCN(C)C)C(=O)Cc1c(C)[nH]c(=O)[nH]c1=O` [CBK286343], the viability at 28.5 h, 10 µM falls from 107% to 94.2%.

Compared with `O=C(NCc1ccc(F)cc1)c1ccc(=O)n(CC(=O)N2CCC3(CCCCC3)C2)c1` [CBK286021], `Nc1ncc(-c2ccc(F)cc2)c(C2CCCN(C(=O)CCc3ccc(F)cc3)C2)n1` (centres unmarked) [CBK286092] is lower in viability at 28.5 h, 10 µM: 109% for the first, 89% for the second.

Compared with `OC(CN1CCN(Cc2ccc3c(c2)OCO3)CC1)C(F)(F)F` (centres unmarked) [CBK074833], `CC(=O)N1N=C(c2ccc3c(c2)OCO3)CC1c1ccc(C(=O)O)cc1` (centres unmarked) [CBK286547] is lower in viability at 28.5 h, 10 µM: 108% for the first, 95.4% for the second.

Compared with `CN(C)CCCN1CCCC2(CCN(C(=O)c3cc(F)c(F)cc3F)C2)C1` (centres unmarked) [CBK132005], `CN(C)CCCNC(=O)c1cnc2cc(Cl)ccc2c1O` [CBK107354] is lower in viability at 28.5 h, 10 µM: 96.5% for the first, 94.4% for the second.

First: Cn1nccc1CN(Cc1ccc(F)cc1)Cc1cccnc1 [CBK282261]
Second: c1cncc(CNc2cccc(OCCOc3nccnc3N3CCNCC3)c2)c1 [CBK200008]
The viability at 28.5 h, 10 µM of the first is higher: 101% for the first, 89.2% for the second.

Going from `CC1CCN(CCN2CCn3c2nc2ccccc23)CC1` [CBK265467B] to `CC1CCN(C(C)Cn2cncc2-c2cnn(C)c2)CC1` (centres unmarked) [CBK281703], the viability at 28.5 h, 10 µM rises from 80% to 95.5%.

First: Cc1ccc(CC(=O)N2CCCCC2c2ncc(-c3cccc(F)c3)[nH]2)cn1 (centres unmarked) [CBK291152]
Second: COc1cccc(CN2CCC(c3ncc(C(=O)Nc4ccc(F)cc4)c(C)n3)CC2)c1 [CBK285630]
The viability at 28.5 h, 10 µM of the first is higher: 98% for the first, 89.8% for the second.

Compared with `Cc1nc2c(C(=O)NCC3CCCO3)cnn2c(C)c1Cc1cccnc1` (centres unmarked) [CBK162160], `CCN1CCCC1CNC(=O)c1cccc(Cl)c1` (centres unmarked) [CBK262621] is lower in viability at 28.5 h, 10 µM: 85.8% for the first, 84.3% for the second.

Going from `COC1(CNC(=O)c2cc3ccccc3[nH]2)CCSC1` (centres unmarked) [CBK304605] to `CC1CCc2nc(NS(=O)(=O)c3ccccc3)sc2C1` (centres unmarked) [CBK026915], the viability at 28.5 h, 10 µM rises from 97.9% to 110%.

Going from `O=c1c2c3c(sc2nc(SCc2cc(O)[nH]n2)n1Cc1ccco1)CCC3` [CBK268301] to `O=C(CSc1nc2sc3c(c2c(=O)n1Cc1ccco1)CCC3)NCc1ccco1` [CBK268499], the viability at 28.5 h, 10 µM rises from 99.4% to 101%.

Going from `CCN(CC)CCNC(=O)c1ccc(NS(=O)(=O)c2cc(C(=O)O)ccc2OC)cc1` [CBK296962] to `O=C(O)c1cccc(NC(=O)c2ccc(CSc3ccc(Br)cc3)cc2)c1` [CBK263226], the viability at 28.5 h, 10 µM falls from 103% to 98.3%.

First: COC(=O)c1cc(-c2ccccc2)sc1NC(=O)CSc1ncnc2sc3c(c12)CCC3 [CBK265978]
Second: CCCCOc1ccc(-c2nc(SCC(=O)O)c3c4c(sc3n2)COC(C)(C)C4)cc1 [CBK267716]
The viability at 28.5 h, 10 µM of the first is lower: 97.4% for the first, 99.1% for the second.

Compared with `COc1ccc(OCC(O)Cn2c(CCCO)nc3ccccc32)cc1` (centres unmarked) [CBK305579], `O=C(O)c1cc(-c2ccco2)nc2ccccc12` [CBK027882] is lower in viability at 28.5 h, 10 µM: 101% for the first, 98.3% for the second.

First: Cc1c(CNCCN2CCCC2=O)c2ccccc2n1C [CBK281519]
Second: O=c1cc(CN2CCCc3ccccc32)[nH]c(=O)[nH]1 [CBK138331]
The viability at 28.5 h, 10 µM of the first is lower: 84.6% for the first, 95.1% for the second.

Going from `Cc1cc(C)n(Cc2cccc(C(=O)NC(C)Cc3ccccn3)c2)n1` (centres unmarked) [CBK281449] to `O=C(NCCn1nc(-c2ccco2)ccc1=O)c1ccccc1F` [CBK283742], the viability at 28.5 h, 10 µM falls from 102% to 92.5%.

Compared with `Cc1cc(C)cc(OCC(=O)Nc2c(C#N)c(C)nn2C)c1` [CBK304791], `Cc1cccc(NC(=O)Cn2cc(C(=O)COc3ccccc3)c3ccccc32)c1` [CBK268654] is lower in viability at 28.5 h, 10 µM: 110% for the first, 104% for the second.

Going from `CCOc1ccsc1C(=O)N1CCC(Cc2ccccc2)CC1` [CBK200186] to `Cc1ccccc1CN1CC[C@@H]2[C@H](C1)[C@@H](c1ccc(F)cc1)CN2C(=O)c1cccs1` [CBK285546], the viability at 28.5 h, 10 µM falls from 114% to 86.8%.

Going from `O=C(CCCc1ccccc1)Nc1ccc(F)cc1[N+](=O)[O-]` [CBK265446] to `CC(=O)Nc1cccc(CN(C)C(CCO)c2ccccc2)c1` (centres unmarked) [CBK305127], the viability at 28.5 h, 10 µM falls from 99.9% to 95.8%.

First: COc1ccc(C2NC(C(=O)O)CS2)cc1CN1C[C@@H]2C[C@H](C1)c1cccc(=O)n1C2 (some centres unmarked) [CBK020798]
Second: COc1ccc(N2C(=O)CC(Nc3cc(C(=O)O)ccc3C)C2=O)c(OC)c1 (centres unmarked) [CBK296650]
The viability at 28.5 h, 10 µM of the first is lower: 93.8% for the first, 114% for the second.

Going from `COc1cc(NS(=O)(=O)c2ccc(NC(=O)c3c(C)noc3C)cc2)nc(OC)n1` [CBK268151] to `NS(=O)(=O)c1ccc(NC(=S)NC(=O)c2ccc(Cl)cc2Cl)cc1` [CBK266265], the viability at 28.5 h, 10 µM falls from 103% to 94%.

Compared with `Cc1cc(Cl)c(S(=O)(=O)Nc2ccc3c(c2)OCCO3)cc1OCC(=O)NC1CCCCC1` [CBK266786], `CC(=O)Nc1ccc(OCC(O)CNC2CCCC2)cc1` (centres unmarked) [CBK267857C] is lower in viability at 28.5 h, 10 µM: 95.5% for the first, 87.6% for the second.

First: CCc1nc2c(OCC=C(C)C)cccn2c1N(C)C(=O)c1cccc(OC)c1 [CBK147448]
Second: COc1ccc(CCCCN(C(=O)C(N)Cc2ccccc2)c2cccc3ccccc23)cc1OC (centres unmarked) [CBK001032T]
The viability at 28.5 h, 10 µM of the first is lower: 94.3% for the first, 118% for the second.

Compared with `Cc1ccc(S(=O)(=O)N(C)C)cc1NC(=O)C12CCC(C)(C(=O)C1)C2(C)C` (centres unmarked) [CBK266551], `CS(=O)(=O)Nc1cc2cccnc2c(-c2ccc3c(c2)CCO3)n1` [CBK085705] is lower in viability at 28.5 h, 10 µM: 108% for the first, 101% for the second.

Going from `COc1ccc2[nH]cc(CC3CCNCC3)c2c1` [CBK012779] to `COc1ccc(-c2cc(C[C@H]3CNCC[C@H]3CC(=O)N3CCN(C)CC3)no2)cc1` [CBK289152], the viability at 28.5 h, 10 µM falls from 104% to 83.8%.

Compared with `Cc1nnc(CN(CC2CCCO2)C2CCCC2)n1C1CC1` (centres unmarked) [CBK304147], `CCCCN1C(=S)SC(C)(C)C1N(O)C(=O)C1CCCCC1` (centres unmarked) [CBK008915] is higher in viability at 28.5 h, 10 µM: 95.5% for the first, 95.6% for the second.

First: O=C(CSc1ncn(-c2ccccc2)n1)Nc1ccc(F)c(Cl)c1 [CBK267313]
Second: O=C(Nc1ccno1)Nc1ccc(Cl)cc1Cl [CBK057809]
The viability at 28.5 h, 10 µM of the first is lower: 94.4% for the first, 94.6% for the second.

Going from `COc1cncc(C(NC(=O)c2ccc3c(c2)CCC3)[C@H]2C[C@H](O)C2)c1` (some centres unmarked) [CBK307646] to `CCCOC1CCCN(C(=O)c2ccc(-c3ccc(Cl)cn3)cc2)C1` (centres unmarked) [CBK306540], the viability at 28.5 h, 10 µM falls from 105% to 89.5%.

First: C/C(=N/OCC(=O)Nc1oc(-c2ccccc2)c(-c2ccccc2)c1C#N)c1cccs1 [CBK262932]
Second: CSc1cc(-c2cccs2)[nH]c(=O)c1C#N [CBK006350]
The viability at 28.5 h, 10 µM of the first is higher: 89.6% for the first, 79.7% for the second.

Going from `CCCCN(CCCC)S(=O)(=O)c1nc2nc(C)cc(C)n2n1` [CBK022076] to `Oc1nccc(Oc2ccnc(Cl)n2)n1` [CBK000010], the viability at 28.5 h, 10 µM rises from 79.7% to 98.5%.

First: COc1cc(Nc2cc(-c3ccc(F)c(F)c3)ncn2)cc(OC)c1OC [CBK090711]
Second: CC1CC(=O)C2C=C(c3ccc(Br)cc3)NN=C2C1 (centres unmarked) [CBK021352]
The viability at 28.5 h, 10 µM of the first is higher: 94.7% for the first, 91.8% for the second.

Going from `c1ccc2c(c1)CCN(Cc1ncc[nH]1)C2` [CBK126402] to `CC(=O)Nc1ncc(Cl)s1` [CBK015564], the viability at 28.5 h, 10 µM rises from 94.7% to 108%.

same assay, conditions: human, hela cells, % viability, bulk resorufin, single well

`COc1ccc(Cl)cc1N1CCNCC1` [CBK013449C] showed a viability at 28.5 h, 10 µM of 89.4%.

From publication PMC12040169 (PLOS Biology, 2025)
